From patent publication US6855719B1, “Imidazo[1,2-A]pyridine and pyrazolo[2,3-A]pyridine derivatives” (AstraZeneca AB, priority 1999, dated 2005)

Target: T1, CDK2/Cyclin E (Homo sapiens, UniProt P24941)
T1 construct: The open reading frames of CDK2 and Cyclin E were isolated by reverse transcriptase-PCR; made in house; host or cells: Sf21 (Spodoptera frugiperda) insect cells, baculovirus co-infection; GST-Rb substrate made in E. coli BL21 (DE3) pLysS
Assay: in vitro kinase assay (Scintillation Proximity Assay), incorporation of [γ-33-P]-ATP into GST-Rb
Type: biochemical
Conditions: CDK2/Cyclin E partially-purified enzyme, GST-Rb substrate, 0.2 μM ATP, 60 minutes room temperature; read-out: CDK2 inhibitory activity IC50
Description: The compounds were tested in an in vitro kinase assay in 96 well format using Scintillation Proximity Assay (SPA—obtained from Amersham) for measuring incorporation of [γ-33-P]-Adenosine Triphosphate into a test substrate (GST-Retinoblastoma protein; GST-Rb). In each well was placed the compound to be tested (diluted in DMSO and water to correct concentrations) and in control wells either roscovitine as an inhibitor control or DMSO as a […] control.
Approximately 0.2 μl of CDK2/Cyclin E partially-purified enzyme (amount dependent on enzyme activity) diluted in 25 μl incubation buffer was added to each well then 20 μl of GST-Rb/ATP/ATP33 mixture (containing 0.5 μg GST-Rb and 0.2 μM ATP and 0.14 μCi [γ-33-P]-Adenosine Triphosphate in incubation buffer), and the resulting mixture shaken gently, then incubated at room temperature for 60 minutes. […]
The plates were sealed with Topseal-S plate sealers, left for two hours then spun at 2500 rpm, 1124× g., for 5 minutes. The plates were read on a Topcount for 30 seconds per well. […]
The open reading frames of CDK2 and Cyclin E were isolated by reverse transcriptase-PCR using HeLa cell and activated T cell mRNA as a template and cloned into the insect expression vector pVL1393 (obtained from Invitrogen 1995 catalogue number. V1392-20). […]

| Structure (SMILES) | IC50 |
| --- | --- |
| O=S(=O)(c1ccc(Nc2nccc(-c3cnc4ccccn34)n2)cc1)N1COCOC1 [Example 11, 2-[4-(3,5-Dioxapiperidin-1-yl)sulphonylanilino]-4-(imidazo[1,2a]pyrid-3-yl)pyrimidine] | 190 nM |
| CCN(CC)CCOc1ccc(Nc2nccc(-c3cnc4ccccn34)n2)cc1 [Example 12, 2-[4-(2-Diethylaminoethoxy)anilino]-4-(imidazo[1,2a]pyrid-3-yl)pyrimidine] | 170 nM |
